Columns and labels:
Jurkat tumor cells = assay: 51Cr cytotoxicity assay, Vα24+ T cell effectors, Jurkat targets; format: cell-based, human; conditions: targets pulsed 16 hours with 50 ng/ml glycolipid (FIG. 4)
Excerpt: (§1) The cell lines U937 (histiocytic lymphoma), RAJI (Burkitt's B cell lymphoma), and K562 (erythroleukemia) were originally obtained from the American Type Culture Collection, ATCC (Mannassas, Va.) and were a gift from Dr. D. Green (La Jolla Institutive for Allergy and Immunology (LIAI), San Diego, Calif.). The T cell leukemia Jurkat cell line was obtained from Nobuaki Takahashi (Kirin Brewery Co., Ltd., Gunma, Japan). Cells were maintained in RPMI-1640 with 10% fetal calf serum (GibcoBRL), penicillin, streptomycin, 2-mercaptoethanol, and Hepes as described previously. For cytotoxic assays, cells were cultured at 1×10^5/ml with 50 ng/ml KRN7000, β-GalCer, or 0.5% DMSO (vehicle) for 16 hours prior to assay.
^51Cr cytotoxicity assays were performed as follows. A total of 5×10^3 51Cr-labeled cells (Na2^51CrO3) (ICN Biomedicals, Inc.) from the U937, K562, or Jurkat cell line as the target cells and various numbers of effector Vα24^+ T cells in 0.2 ml of culture medium were seeded into round-bottom microtiter wells. The culture was incubated at 37° C. in an atmosphere containing 6% CO2 for 5 h, and 0.1 ml of supernatant was collected from each well. The percentage of specific ^51Cr release was calculated as follows: [(cpm experimental−cpm spontaneous release)/(cpm maximal release−cpm spontaneous release)]×100. […]

[1] = system: CD3^+hCD1d/KRN7000 Tetramer^+ T cells; assay: Expansion of CD3+ hCD1d/KRN7000 Tetramer+ T cells in PBMC culture, 7 days; format: cell-based, human
U937 = assay: 51Cr cytotoxicity assay, Vα24+ T cell effectors, U937 targets; format: cell-based, human; conditions: targets pulsed 16 hours with 50 ng/ml glycolipid (FIG. 4)
Excerpt: as §1
(§2) ^51Cr cytotoxicity assays were performed as follows. A total of 5×10^3 51Cr-labeled cells (Na2^51CrO3) (ICN Biomedicals, Inc.) from the U937, K562, or Jurkat cell line as the target cells and various numbers of effector Vα24^+ T cells in 0.2 ml of culture medium were seeded into round-bottom microtiter wells. The culture was incubated at 37° C. in an atmosphere containing 6% CO2 for 5 h, and 0.1 ml of supernatant was collected from each well. The percentage of specific ^51Cr release was calculated as follows: [(cpm experimental−cpm spontaneous release)/(cpm maximal release−cpm spontaneous release)]×100.

PBMC = assay: Proliferation of PBMCs, [3H]-thymidine incorporation; format: cell-based, human; conditions: donor 9 PBMC, 5 days, tritiated thymidine incorporation
K562 = assay: 51Cr cytotoxicity assay, Vα24+ T cell effectors, K562 targets; format: cell-based, human; conditions: targets pre-pulsed (FIG. 4)
Excerpt: as §1, §2

Molt-4 = assay: 51Cr cytotoxicity assay, Vα24+ T cell effectors, Molt-4 targets; format: cell-based, human; conditions: data not shown
RAJI = assay: 51Cr cytotoxicity assay, Vα24+ T cell effectors, RAJI targets; format: cell-based, human; conditions: data not shown
Excerpt: as §1, §2

Compound	lysis of glycolipid-pulsed Jurkat target cells by CD4^+ and CD4^− expanded Vα24^+ T cells (Jurkat tumor cells)	increase in Vα24/Vβ11 cells with autologous donor serum versus commercial pooled human serum (Vα24^+Vβ11^+ T cells; 3 donors, KRN7000 and rhIL-2, 7 days)	Percentage of Vα24/Vβ11 cells (Vα24^+Vβ11^+ T cells; donor 9 PBMC, 7 days, flow cytometry) [%]	Number of Vα24Vβ11 cells (Vα24^+Vβ11^+ T cells; donor 9 PBMC, day 7, cell recovery × percentage)	% CD^3+ Tetramer^+ cells ([1]; PBMC 1×10^6/ml, 7 days, KRN7000 100 ng/ml, rhIL-2 10 ng/ml, rhIL-15 100 ng/ml, flow cytometry) [%]	number of Tetramer^+ cells ([1]; percentage × cells recovered, day 7)	lysis of glycolipid-pulsed U937 target cells by CD4^+ and CD4^− expanded Vα24^+ T cells (U937)	Proliferation, cpm (PBMC)	Proliferation, cpm (PBMC; listed as KRN7000 only)	lysis of glycolipid-pulsed K562 target cells by expanded Vα24^+ T cells (K562)	killing of Molt-4 target cells by expanded Vα24^+ T cells (Molt-4)	killing of RAJI target cells by expanded Vα24^+ T cells (RAJI)
CCCCCCCCCCCCCCCCCCCCCCCCCC(=O)N[C@@H](CO[C@H]1O[C@H](CO)[C@H](O)[C@H](O)[C@H]1O)[C@H](O)[C@H](O)CCCCCCCCCCCCCC [KRN7000, (2S,3S,4R)-1-O-(alpha-D-Galactopyranosyl)-N-hexacosanoyl-2-amino-1,3,4-octadecanetriol]	lysed	up to 7 times	0.25	2,125	0.03	312	lysed	little or no proliferation	1,145 cpm	not lysed	not killed	not killed
β-galactosylceramide [β-GalCer]	not lysed						not lysed					

Reference: patent US20030153073A1, “Expansion of T cells in vitro and expanded T cell populations” (priority 2001, published 2003)
